The compounds below were run against T1, human androgen receptor (Homo sapiens, UniProt P10275) (assay: androgenic activity rating (procedures described above; which one underlies the rating is not stated)).
T1 construct: host or cells: MCF-7 cytosol (endogenous) or CHO cells transfected with hAR
T1 sequence (P10275 1-920): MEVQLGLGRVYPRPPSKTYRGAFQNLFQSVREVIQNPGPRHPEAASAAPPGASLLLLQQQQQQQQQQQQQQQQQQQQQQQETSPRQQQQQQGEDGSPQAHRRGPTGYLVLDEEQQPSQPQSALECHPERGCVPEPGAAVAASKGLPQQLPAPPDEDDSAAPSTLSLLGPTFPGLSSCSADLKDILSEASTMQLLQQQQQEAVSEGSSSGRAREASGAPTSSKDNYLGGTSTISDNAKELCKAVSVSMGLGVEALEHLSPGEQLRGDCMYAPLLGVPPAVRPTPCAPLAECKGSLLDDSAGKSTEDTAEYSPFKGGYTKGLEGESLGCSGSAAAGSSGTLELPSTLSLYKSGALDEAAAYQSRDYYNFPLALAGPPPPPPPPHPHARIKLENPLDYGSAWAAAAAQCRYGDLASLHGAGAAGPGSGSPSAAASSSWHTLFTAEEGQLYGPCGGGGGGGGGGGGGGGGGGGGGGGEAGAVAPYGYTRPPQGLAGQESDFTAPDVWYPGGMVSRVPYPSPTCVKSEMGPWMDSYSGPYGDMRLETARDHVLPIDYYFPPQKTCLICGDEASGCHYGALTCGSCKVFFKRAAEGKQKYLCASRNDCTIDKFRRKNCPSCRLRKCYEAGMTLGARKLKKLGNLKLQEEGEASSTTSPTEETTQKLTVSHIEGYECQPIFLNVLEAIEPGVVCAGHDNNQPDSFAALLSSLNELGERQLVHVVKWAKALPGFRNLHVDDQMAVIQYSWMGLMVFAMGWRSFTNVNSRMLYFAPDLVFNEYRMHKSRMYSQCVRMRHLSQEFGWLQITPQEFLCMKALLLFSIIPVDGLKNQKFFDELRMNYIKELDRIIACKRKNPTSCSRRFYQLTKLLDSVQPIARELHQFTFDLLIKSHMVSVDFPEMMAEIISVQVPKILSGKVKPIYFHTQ
Design: key: +: androgenic activity found; ++: high androgenic activity; +++: excellent androgenic activity
Protocol: Androgenic activity can be measured in various ways. Thus, the potency of androgens can be determined in vitro using the cytoplasmic androgen receptor from human breast tumor cells (MCF-7 cell line); see Bergink, E. W. et al, Comparison of the receptor binding properties of nandrolone and testosterone under in vitro and in vivo conditions, J. Steroid Biochem. 22, 831-836 (1985). It is also possible to use Chinese hamster ovary (CHO) cells transfected with the human androgen receptor (incubation time 16 h, temperature 4° C.) and compared with the affinity of 5α-dihydrotestosterone [according to the procedure described by Bergink, E. W. et al, J. Steroid Biochem. 12, 1563-1570 (1983)]. The transactivative androgen activity of the compounds of the invention can be measured, e.g. in Chinese hamster ovary cells (CHO) transfected with the human androgen receptor (hAR), in combination with a mouse mammary tumor virus (MMTV), and luciferase […] (incubation time 16 h, temperature 37° C.) and compared with the activity of 5α-dihydrotestosterone [according to the procedure described by Schoonen, W. G. E. J. et al, Analyt. Biochem. 261, 222-224 (1998)]. For the in vivo potency determination of androgens the classical Hershberger test can be used. In this test the androgenic (increase in prostate weight) and anabolic activities [increase of the musculus levator ani (MLA)] of a compound are tested in immature castrated rats after daily administration for 7 days; see Hershberger, L. G. et al, Myotrophic activity of 19-Nortestosterone and other steroids determined by modified levator ani muscle method, Proceedings of the society for experimental biology and medicine 83, 175-180 (1953). Additionally, the effect of an androgenic compound on LH suppression can be tested in mature castrated rats according to Kumar, N. et al, The biological activity of 7alpha-methyl-19-nortestosterone is not amplified in male reproductive tract as is that of testosterone, Endocrinology 130, 3677-3683 (1992).
A plurality of compounds according to the invention were tested for androgenic activity (the procedures for which have been described above) and rated in the Table below according to the following scheme: • + androgenic activity found; • ++ high androgenic activity; • +++ excellent androgenic activity; • nd no data available
`C#C[C@@H](O)[C@@H]1CC[C@@H]2[C@H]3[C@H](CC[C@@]21C)[C@H]1CCC(=O)C=C1C[C@H]3C` [Example 18d, [7α,14β,17α(S)]-17-(1-Hydroxy-2-propynyl)-7-methylestr-4-en-3-one] was tested, and the “Rating (androgenic activity)” value was “+”.
In the case of `CC(O)C1C2CC2C2C3C(C)CC4=CC(=O)CCC4C3CCC12C` [Example 20b, (7α,14β,15β,16β,17α,20R)-20-Hydroxy-7-methyl-15,16-methylene-19-norpregn-4-en-3-one], the “Rating (androgenic activity)” value is reported as “+”.
In the case of `C[C@@H]1C[C@@H](CO)[C@@]2(C)CC[C@H]3[C@@H](CCC4=CC(=O)CC[C@@H]43)[C@@H]12` [Example 23, (14β,15β,17α)-17-(Hydroxymethyl)-15-methylestr-4-en-3-one], the “Rating (androgenic activity)” value is reported as “+”.
For `CC1CC2=CC(=O)CCC2C2CCC3(C)C(CCC3(C)CO)C12` (stereo not drawn) [Example 11, (7α,14β,17α)-17-(Hydroxymethyl)-7,17-dimethylestr-4-en-3-one], the “Rating (androgenic activity)” value was “+”.
`CC(O)C1CCC2C3CCC4=CC(=O)CCC4C3CCC12C` [Example 24b, (14β,17α,20R)-20-Hydroxy-19-norpregn-4-en-3-one] was tested, and the “Rating (androgenic activity)” value was “+”.
For `CCCCCCCCCCC(=O)OC[C@@H]1CC[C@@H]2[C@H]3[C@H](CC[C@]12C)[C@H]1CCC(=O)C=C1C[C@H]3C` [Example 33c, (7α,14β,17α)-7-Methyl-17-[[(1-oxoundecyl)oxy]methyl]estr-4-en-3-one], the “Rating (androgenic activity)” value was “+”.
In the case of `C=CC1CC2(C)C(C(C)O)CCC2C2CCC3=CC(=O)CCC3=C12` [Example 30, (11β,14β,17α,20S)-11-Ethenyl-20-hydroxy-19-norpregna-4,9-dien-3-one], the “Rating (androgenic activity)” value is reported as “+”.
With `C[C@@H]1CC2=CC(=O)CC[C@@H]2[C@H]2CC[C@]3(C)[C@H](CO)CC[C@@H]3[C@@H]21` [Example 4, (7α,14β,17α)-17-(Hydroxymethyl)-7-methylestr-4-en-3-one] the “Rating (androgenic activity)” value was “+++”.
With `C[C@@H]1CC2=CC(=O)CC[C@@H]2[C@H]2CC[C@@]3(C)[C@H]([C@@H]4C[C@@H]4[C@H]3CO)[C@@H]21` [Example 10, (7α,14β,15β,16β,17α)-17-(Hydroxymethyl)-7-methyl-15,16-methyleneestr-4-en-3-one] the “Rating (androgenic activity)” value was “++”.
For `C[C@@H]1CC2=CC(=O)CC[C@@H]2[C@H]2CC[C@]3(C)[C@H](CO)CC[C@]3(C)[C@@H]21` [Example 6, (7α,14β,17α)-17-(Hydroxymethyl)-7,14-dimethylestr-4-en-3-one], the “Rating (androgenic activity)” value was “++”.
For `CC(O)C1CCC2C3CCC4=CC(=O)CCC4=C3CCC12C` [Example 27b, (14β,17α,20R)-20-Hydroxy-19-norpregna-4,9-dien-3-one], the “Rating (androgenic activity)” value was “+”.
`C[C@@H]1CC2=C/C(=N/O)CC[C@@H]2[C@H]2CC[C@]3(C)[C@H](CO)CC[C@@H]3[C@@H]21` [Example 36a, (3E,7α,14β,17α)-3-(Hydroxyimino)-7-methylestr-4-ene-17-methanol] was tested, and the “Rating (androgenic activity)” value was “+”.
`CC1CC2=CC(=O)CCC2C2CCC3(C)C(C4CC4C3C(C)(C)O)C12` (stereo not drawn) [Example 21, (7α,14β,15β,16β,17α)-20-Hydroxy-7,20-dimethyl-15,16-methylene-19-norpregn4-en-3-one] was tested, and the “Rating (androgenic activity)” value was “+”.
In the case of `CCC[C@H](O)[C@@H]1CC[C@@H]2[C@@H]3CCC4=CC(=O)CC[C@@H]4[C@H]3CC[C@@]21C` [Example 25c, (14β,17α,20S)-20-Hydroxy-19,21-dinorchol-4-en-3-one], the “Rating (androgenic activity)” value is reported as “+”.
`C[C@@H]1CC2=CC(=O)CC[C@@H]2[C@H]2CC[C@@]3(C)[C@H](CC[C@@]3(O)CO)[C@@H]21` [Example 13, (7α,14β,17β)-17-Hydroxy-17-(hydroxymethyl)-7-methylestr-4-en-3-one] was tested, and the “Rating (androgenic activity)” value was “+”.
With `C[C@@H]1CC2=CC(=O)CC[C@@H]2[C@H]2CC[C@@]3(C)[C@H](C=C[C@H]3CO)[C@@H]21` [Example 5, (7α,14β,17α)-17-(hydroxymethyl)-7-methylestra-4,15-dien-3-one] the “Rating (androgenic activity)” value was “+++”.
`CCC1CC2(C)C(C(C)O)CCC2C2CCC3=C(CCC(=O)C3)C12` [Example 28a, (11β,14β,17α,20S)-11-Ethyl-20-hydroxy-19-norpregn-5(10)-en-3-one] was tested, and the “Rating (androgenic activity)” value was “+”.
`C[C@@H]1CC2=CCCC[C@@H]2[C@H]2CC[C@]3(C)[C@H](CO)CC[C@@H]3[C@@H]21` [Example 37, (7α,14β,17α)-7-Methylestr4-ene-17-methanol] was tested, and the “Rating (androgenic activity)” value was “+”.
With `C[C@]12CC[C@@H]3C4=C(CC[C@H]3[C@H]1CC[C@H]2CO)CC(=O)CC4` [Example 2, (14β,17α)-17-(Hydroxymethyl)estr-5(10)-en-3-one] the “Rating (androgenic activity)” value was “++”.
In the case of `CC(O)C1CCC2C3CCC4=CC(=O)CCC4C3CCC12C` [Example 24a, (14β,17α,20S)-20-Hydroxy-19-norpregn-4-en-3-one], the “Rating (androgenic activity)” value is reported as “++”.
For `C=CC(O)[C@@H]1CC[C@@H]2[C@H]3[C@H](CC[C@@]21C)[C@H]1CCC(=O)C=C1C[C@H]3C` (stereo partly drawn) [Example 18a, [7α,14β,17α(S)]-17-(1-Hydroxy-2-propenyl)-7-methylestr-4-en-3-one], the “Rating (androgenic activity)” value was “+”.
`CC[C@@H]1CC2=CC(=O)CC[C@@H]2[C@H]2CC[C@]3(C)[C@H](CO)CC[C@@H]3[C@H]12` [Example 14, (7α,14β,17α)-7-Ethyl-17-(hydroxymethyl)estr-4-en-3-one] was tested, and the “Rating (androgenic activity)” value was “+”.
With `C=CCC(O)C1CCC2C3C(C)CC4=CC(=O)CCC4C3CCC12C` [Example 18g, (7α,14β,17α,20S)-20-Hydroxy-7-methyl-19,21-dinorchola-4,23-dien-3-one] the “Rating (androgenic activity)” value was “+”.
In the case of `CC1CC2=CC(=O)CCC2C2CCC3(C)C(CCC3C(C)(C)O)C12` (stereo not drawn) [Example 19, (7α,14β,17α)-20-Hydroxy-7,20-dimethyl-19-norpregn-4-en-3-one], the “Rating (androgenic activity)” value is reported as “+”.
For `C[C@]12CC[C@H]3[C@@H](CCC4=CC(=O)CC[C@@]43C)[C@H]1CC[C@H]2CO` [Example 22b, (14β,17α)-17-(Hydroxymethyl)androst-4-en-3-one], the “Rating (androgenic activity)” value was “+”.
In the case of `CC(=O)OC[C@@H]1CC[C@@H]2[C@H]3[C@H](CC[C@]12C)[C@H]1CCC(=O)C=C1C[C@H]3C` [Example 33a, (7α,14β,17α)-17-[(Acetyloxy)methyl]-7-methylestr-4-en-3-one], the “Rating (androgenic activity)” value is reported as “+”.
In the case of `CCC(O)[C@@H]1CC[C@@H]2[C@H]3[C@H](CC[C@@]21C)[C@H]1CCC(=O)C=C1C[C@H]3C` (stereo partly drawn) [Example 17b, [7α,14β,17α(R)]-17-(1-Hydroxypropyl)-7-methylestr-4-en-3-one], the “Rating (androgenic activity)” value is reported as “+”.
`CCCC[C@H]1CC[C@H](C(=O)OC[C@@H]2CC[C@@H]3[C@H]4[C@H](CC[C@]23C)[C@H]2CCC(=O)C=C2C[C@H]4C)CC1` (relative stereo) [Example 33d, (7α,14β,17α)-17-[[[(trans-4-Butylcyclohexyl)carbonyl]oxy]methyl]-7-methylestr-4-en-3-one] was tested, and the “Rating (androgenic activity)” value was “+”.
For `C=CC[C@@H](O)[C@@H]1CC[C@@H]2[C@H]3[C@H](CC[C@@]21C)[C@H]1CCC(=O)C=C1C[C@H]3C` [Example 18h, (7α,14β,17α,20R)-20-Hydroxy-7-methyl-19,21-dinorchola-4,23-dien-3-one], the “Rating (androgenic activity)” value was “+”.
With `CC(O)C1C2CC2C2C3C(C)CC4=CC(=O)CCC4C3CCC12C` [Example 20a, (7α,14β,15β,16β,17α,20S)-20-Hydroxy-7-methyl-15,16-methylene-19-norpregn-4-en-3-one] the “Rating (androgenic activity)” value was “++”.
